Consider one compound from patent US11352382B2, “Mito-lonidamine, compositions and methods of use” (THE MEDICAL COLLEGE OF WISCONSIN, INC., priority 2018, dated 2022).

One data set deals with cytosolic Prx1. The data set can be described thus: Redox status of cytosolic peroxiredoxin. The data set is classed as cell-based, human. To be noted: lung cancer cells. From the text: (§1) Inhibition of mitochondrial respiration results in increased O2^⋅− and other oxidants.
A further data set has as its system intact lung cancer cells. As to the kind of experiment: Cellular respiration (oxygen consumption rate, OCR) in intact lung cancer cells. The data set is classed as cell-based, human. Conditions: not shown. The text has this:
LON and Mito-LON inhibit mitochondrial complex I activity. Mito-LON inhibited cellular respiration (oxygen consumption rate, OCR) at >100-fold lower concentration than LON in intact lung cancer cells (FIG. 9). Both basal respiration and the response to mitochondrial stressors (oligomycin, dinitrophenol) were diminished by Mito-LON (not shown). To investigate the mechanism of mitochondrial inhibition, we measured the activity of mitochondrial complexes in H2030BrM3 cells (NSCLC cell line). The cell membrane was permeabilized, and OCR was measured upon addition of substrates and inhibitors of mitochondrial complexes I-IV (FIG. 9A). These studies established the optimal use of permeabilized cells for complex activity assays.^54 Next, cells were pretreated with LON and Mito-LON for 24 h and experiments performed as in FIG. 9A. […] We hypothesize that inhibition of mitochondrial complexes I and II is the predominant mechanism for antiproliferative effects of Mito-LON on lung cancer cells.

The test system of data set [1] is H2030, PC9, H460, H2030BrM3, PC9BrM3 cells. The data set can be described thus: Cell viability of lung cancer and brain metastatic lines (Calcein-AM). The data set is classed as cell-based, human. The text has this:
Mito-LON treatment causes cell death of human lung cancer and lung cancer-derived brain metastatic cell lines. Paradoxical roles for autophagy in cancer have been reported for the role of autophagy in cancer. Under conditions of nutrient deprivation autophagy induction can promote cell survival; however, in response to other environmental stressors including ROS generation, autophagy can promote cancer cell death. We treated lung cancer lines (H2030, PC9, H460) and lung cancer-derived brain metastatic lines (H2030BrM3, PC9BrM3) with Mito-LON (1.6, 2.0 or 2.4 μM) and measured cell viability at 24 and 48 h.

Data set [2] deals with H2030 and H2030BrM3 cells. The data set can be described thus: Autophagy and mitophagy markers in cell lysates, MDC staining. The data set is classed as cell-based, human. How it is done:
Mito-LON induces autophagic cell death in human lung cancer cell lines and lung-derived brain metastatic lines. To investigate potential mechanisms underlying Mito-LON's induction of cancer cell death that result from its inhibition of mitochondrial respiration and induction of ROS, we analyzed lysates of cells treated with Mito-LON [2.0 μM] for 0, 6, 24 and 48 h. Lysates were probed for proteins targeting energetics, apoptosis and autophagy, including selective mitophagy markers. Our data (FIG. 19) show Mito-LON treatment [2.0 μM] modulates key autophagy proteins, including specific mitophagy receptors, adaptor proteins and energy sensing molecules in H2030 lung cancer cells and the corresponding brain metastatic line (H2030BrM3). LC3, microtubule-associated protein light chain 3, is critical for cargo recruitment. The LC3 precursor is modified via an ubiquitination-like system generating soluble LC3-I, which is further modified to LC3-II, a membrane-bound phospholipid conjugate upon autophagy induction. LC3-II integrates into the autophagosome membrane and is considered a reliable early marker of autophagy induction. Mito-LON treatment (FIG. 19A) increased levels of LC3-II 1.9 to 4.4-fold across cell lines, with sustained modulation through 48 h. The LC3-interacting region (LIR) serves as a mechanistic basis for selective autophagy, including mitophagy which specifically targets degradation of damaged mitochondria via engagement of adaptor proteins (p62, NBR1, OPTN, BNIP3L). We evaluated the effects of Mito-LON on ubiquitin-binding mitophagy receptors (p62, NDP52, NBR1) which also indicate autophagic flux versus potential impairment of autophagosome turnover. […] Changes were consistently bimodal in Mito-LON treated H2030 cells, potentially due to P62's dual role in mitophagy, both in clustering of mitochondria as well as downstream degradation. […] PINK1 was included as an indicator of PINK1-Parkin dependent mitophagy. Basal levels of PINK1 are normally low with increases due to mitochondrial depolarization, damage and ATP alterations, as noted in both cell lines. Beclin1 (BECN1), an autophagy regulator and potential tumor suppressor gene product in multiple cancers, including NSCLC.
Thus, autophagy induction in the lung derived brain metastatic line may be BECN1-independent. […] NRF2, a major regulator of cellular stress responses, was not detectable in either cell line. FIG. 19B further supports autophagy induction by Mito-LON. […] Specifically, Mito-LON alters phosphorylation events and activating partners in parallel. As an example, P-P70S6K^Thr389 phosphorylates mTOR^Ser2448; both reduced in Mito-LON treated cells. Similarly, ULK is activated by AMPK, and both phosphoproteins are decreased by Mito-LON, as is P-PTEN.

The next data set deals with A/J mice. The data set can be described thus: 8-week toxicology study (maximum tolerated dose, Modified Irwin Screen). The data set is classed as in vivo, mouse. From the text: Maximum tolerated dose (MTD) of Mito-LON. We conducted an 8-week toxicology study to evaluate possible toxicity of Mito-LON, especially on neural and muscle cells using a Modified Irwin Screen, developed as a comprehensive observational battery to broadly screen for central nervous system (CNS) effects of agents. Modifications of this test are extensively used in the pharmaceutical industry and in academic research to identify changes in neurological function as a result of agent intoxication, neurotoxicity, or genetic manipulation. The screen used here employs 35 distinct measurements to assess sensorimotor, neurological, and autonomic nervous system function^78. The effective dose (ED) of Mito-LON is designated as 7.5 μmol/kg based on our preliminary data (FIGS. 24 & 25).

The next data set has as its system mitochondrial Prx3. The data set can be described thus: Redox status of mitochondrial peroxiredoxin. It is filed as cell-based, human. To be noted: lung cancer cells.
Text: as §1

The subject of data set [3] is VC-induced lung tumors in A/J mice. The data set can be described thus: Vinyl carbamate (VC)-induced lung carcinogenesis, post-initiation protocol. It is filed as in vivo, mouse. The text has this: Preventive efficacy of Mito-LON on vinyl carbamate (VC)-Induced lung carcinogenesis using a post-initiation protocol. We evaluated the preventive efficacy of Mito-LON on the development of VC-induced lung tumors in A/J mice. A post-initiation protocol was used in this study by which administration of Mito-LON was initiated one week after VC. Mito-LON was given via oral gavage at a dose of 15 μmol/kg 5 days/week for 20 weeks.

Structures are written as SMILES. Entries after “also recorded” stand apart in the source; their conditions may differ.

In the case of `O=C(NCCCCCCCCCC[P+](c1ccccc1)(c1ccccc1)c1ccccc1)c1nn(Cc2ccc(Cl)cc2Cl)c2ccccc12` [Mito-LON, Mito10-lonidamine], the “effect on cytosolic Prx1” value in the data set with cytosolic Prx1 is listed as “without significant effect”. The “basal respiration and response to mitochondrial stressors (oligomycin, dinitrophenol)” value in the data set with intact lung cancer cells was “diminished”. The cytotoxicity at 2 µM in data set [1] (Homo sapiens, NCI-H2030, H2030 cells, 2.0 μM, 48 h, Calcein-AM, read-out: reduction of cell viability) was approximately 50%. In addition, in data set [1] (lung cancer and brain metastatic lines, 24 and 48 h), the “LD50, cell viability” value was 2.0 µM. Moreover, the NDP52 result in data set [2] (2.0 μM) is “paralleled P62 changes”. In addition, in data set [2] (2.0 μM, H2030 and H2030-BrM3 cells), the Beclin-1 levels entry is given as “increased Beclin-1 levels in H2030 cells but not in H2030-BrM3 cells”. Besides, in data set [2] (2.0 μM, H2030 cells), the “autophagic vacuolization (bright field)” value is listed as “markedly increased vacuolization” and the “monodansylcadaverine (MDC) staining” value was “stained positive for MDC”. Further, the P62 entry in data set [2] (2.0 μM, both cell lines) is recorded as “modulated P62 in both cell lines”. In addition, the “autophagy-initiating energy-sensing proteins of the AKT/mTOR signaling pathway” value in data set [2] (FIG. 19C) is listed as “deactivates”. For the same compound, the RAB7 levels entry in data set [2] (H2030BrM3 cells) was “increased levels of RAB7”. In the data set with A/J mice (doses up to 50× ED), the toxicity overall entry is “did not show any toxicity”. In the data set with A/J mice (up to 50× ED, A/J mice, 8-weeks treatment), the “body weights (and organ weights) and 35 Modified Irwin Screen metrics versus control” value is “didn't observe any significant differences”. Further, in the data set with A/J mice (up to 50× ED, A/J mice, 8 weeks), the “toxic effects in neural tissue and muscles by histopathology, liver function (serum AST and ALT)” value is given as “No toxic effects”. In addition, the “oxidation of mitochondrial Prx3” value in the data set on mitochondrial Prx3 is recorded as “oxidizes mitochondrial Prx3; also recorded: pronounced oxidation”. Besides, the “oxidation of mitochondrial Prx3” value with mitochondrial Prx3 (listed as Mito-LDN) is “oxidizes mitochondrial Prx3”. Besides, the “inhibition of VC-induced lung tumor development, total tumor load” value in data set [3] (15 μmol/kg oral gavage 5 days/week for 20 weeks, A/J mice) was determined as 62%. In addition, the body weight changes entry in data set [3] (15 μmol/kg oral gavage, 20 weeks) was “did not observe any body weight changes”.
